# Where “and” joins values, the source holds several entries; their conditions need not be identical. Equal entries are not always repeated. Where two headings read alike, the source gives them in different places.
# Assays:
# P. aeruginosa DSMZ 1117 = type: cell-based, Pseudomonas aeruginosa; details: for Reduction in adhered bacteria [%] P. aeruginosa: polyester fabric, application concentration 0.1 wt %, commercial product applied directly by padding, relative to uncoated fabric; for Reduction in adhered bacteria [%]: P. aeruginosa, polyester
# Procedure: (§1) Circular fabric samples with a diameter of 0.6 cm were punched from coated and uncoated cotton and polyester fabrics. The fabric samples were fixed to a microtiter plate. The fabric samples were washed with acetone and sterilized with UV light for 60 minutes.
# (§2) The strains were coated fresh from glycerol bacterial cultures onto tryptic soy agar (TSA). Incubation took place overnight at 33° C. The nutrient medium prepared was a tryptic soy broth (TSB), with 30% of the amount recommended by the manufacturer, supplemented with 0.25% of glucose. […] The nutrient medium was inoculated with the bacterial cultures and after inoculation was cultivated overnight at 37° C. and 160 rpm.
# (§3) The resulting overnight cultures were centrifuged at 8500 g for 15 minutes and washed with 50 ml of isotonic saline solution (0.9 wt %). Bacterial suspensions in isotonic saline solutions were prepared. The optical density of the various bacterial suspensions was determined at 595 nm and adjusted to a level of about 1.2.
# (§4) 50 μl of the final microorganism suspension in isotonic saline solution (0.9 wt %) prepared as described under 2.2 were added to the coated and uncoated fabric samples fixed on the microtiter plate (see 2.1). The microtiter plates were closed and sealed off with Parafilm. The microtiter plates were placed in an antievaporation box and incubated at 33° C. for 2 h and at 40 rpm. The expected colony-forming unit count (CFU) of the inoculum at the start was 10^6-10^7 CFU/ml.
# After the biofilm had formed, the planctonic cells were removed and used as a sample for determining the optical density at 595 nm. For this purpose, the samples were made up to a volume of 150 μl, and 100 μl were withdrawn for the optical density determination in a photometer. […] Through the determination of the planctonic cells after the formation of biofilm, the amount of bacteria available for adhesion was monitored.
# (§5) The fabric samples and the resulting biofilm were washed three times with 200 to 300 μl of isotonic saline solution.
# (§6) The fabric samples obtained under 2.4 (after formation of biofilm) were placed together with 100 μl of isotonic saline solution into wells of a 96-well microtiter plate.
# (§7) Investigations into the removal of the adhered microorganisms from the fabric surfaces were carried out with vortexing, ultrasound, with enzymatic treatment, or with combinations thereof. Treatment in the vortex amounted to 5 minutes and was performed horizontally. The ultrasound treatment was carried out in an ultrasound bath for 5 minutes. For the enzymatic removal, the fabric samples were treated with enzymes, such as trypsin or a mixture of different enzymes, for example, during incubation at 37° C. for 1 hour.
# (§8) Following removal of the adhered bacteria, the fabric samples were removed from the microtiter plates.
# (§9) The number of removed bacteria in the resulting suspension was determined by staining with Syto9 and fluorescence measurement (fluorescence filter with excitation at 485/20 nm and emission at 528/20 nm) or by staining with BacTiterGlo and bioluminescence measurement. Furthermore, it is possible to determine the number of adhered and removed microorganisms by means of protein assay (e.g., BCA assay, Bradford Assay) or optical density proliferation assay.
# The relative variables (e.g., fluorescence units (RFU)) concerning the coated and uncoated fabrics were compared, allowing the reduction in adhered bacteria in % to be determined in accordance with the following formula: Reduction in adhered bacteria[%]=[(RFUuc−RFUuc)/RFUuc]*100 where • RFUuc=relative fluorescence units of the removed bacteria of the uncoated substrate • RFUc=relative fluorescence units of the removed bacteria of the coated substrate
# The commercial products described in example 1 were applied directly by a padding method to polyester fabric samples.
# Bacterial adhesion to the polyester fabric samples was investigated using the microtiter plate Syto9 assay, as described in example 2.
# Staphylococcus aureus [1] = type: cell-based; details: for Reduction in cell count relative to control [%] S. aureus: coated glass slide vs uncoated glass control K; for Cell count [1/cm^2] S. aureus: glass slide coated from 0.1% strength solution, bacterial suspension 10^9 microbes/ml, 30 measuring windows
# Source text: (§10) Silane derivatives S1, S3, S4 and S5 as identified above in example 1 were used to produce coatings on glass slides. As a control (comparison sample) K, an uncoated glass slide cleaned with isopropanol was used.
# (§11) For the coating of the slides they were immersed for 60 seconds into a 0.1% strength solution of the corresponding silane derivative in ethanol/water as solvent with a water fraction of 5%. The solutions had been adjusted with acetic acid beforehand to a pH in the range from 4 to 5. The wetted slides were subsequently dried at 160° C. for 1 hour.
# (§12) The slides wetted with the bacterial suspension were analyzed by microscope to determine the adhering bacteria. […] The fluorescent dye used was DAPI (4′,6-diamidine-2-phenylindole), which binds to DNA and fluoresces under UV excitation. In order to determine the adhesion characteristics, the cell counts per cm^2 were ascertained in 30 measuring windows, and the adhesion pattern was evaluated. Cell attachment was evaluated on an Olympus IX 51 using the Labflow AnalySIS image processing program.
# (§13) Bacterial suspensions produced and used were suspensions of test cultures of the strains Staphylococcus aureus and Escherichia coli. The concentration of the bacterial suspension was 10^9 microbes/ml.
# S. aureus DSMZ 20231 = assay: Syto9 microtiter plate assay: adhesion of bacteria to coated polyester fabric samples; type: cell-based, Staphylococcus aureus; details: for Reduction in adhered bacteria [%] S. aureus: polyester fabric, application concentration 0.1 wt %, commercial product applied directly by padding, relative to uncoated fabric; for Reduction in adhered bacteria [%]: S. aureus, polyester
# Procedure: as §1, §2, §3, §4
# After the biofilm had formed, the planctonic cells were removed and used as a sample for determining the optical density at 595 nm. For this purpose, the samples were made up to a volume of 150 μl, and 100 μl were withdrawn for the optical density determination in a photometer. The optical density of the corresponding control solution with sterile isotonic saline solution was subtracted from the optical densities found. Through the determination of the planctonic cells after the formation of biofilm, the amount of bacteria available for adhesion was monitored.
# as §5, §6, §7, §8, §9
# The relative variables (e.g., fluorescence units (RFU)) concerning the coated and uncoated fabrics were compared, allowing the reduction in adhered bacteria in % to be determined in accordance with the following formula: Reduction in adhered bacteria[%]=[(RFUuc−RFUuc)/RFUuc]*100 where • RFUuc=relative fluorescence units of the removed bacteria of the uncoated substrate • RFUc=relative fluorescence units of the removed bacteria of the coated substrate […]
# Escherichia coli = assay: Bacterial adhesion to coated glass slides via fluorescence microscopy (DAPI); type: cell-based; details: for Reduction in cell count relative to control [%] E. coli: coated glass slide vs uncoated glass control K; for Cell count [1/cm^2] E. coli: glass slide coated from 0.1% strength solution, bacterial suspension 10^9 microbes/ml, 30 measuring windows
# Source text: as §10, §11, §12, §13
# Staphylococcus aureus [2] = assay: Antimicrobial activity of coated polyester fabric samples as per JIS L 1902; type: cell-based; details: for Antimicrobial activity[log] Unwashed: 18 hours at 37° C.
# Procedure: The procedure here is that the fabric sample was inoculated with a defined amount of a microbial suspension (inoculum). Test specimens with a weight of approximately 0.4 g were investigated in a triplicate determination.
# The inoculated fabric sample was incubated in a closed system at 37° C. over a period of 18 hours. Following incubation, the bacteria of a defined amount of a dilution solution were recorded. The difference in the bacterial count of the fabric sample at 0 hours in comparison to the fabric sample after 18 hours served as a basis for evaluation. The antimicrobial activity is reported as a logarithmic or percentage value. Here, a reduction in the microbe count of 0% corresponds to inadequate antimicrobial action, a microbe reduction in the range from 0.1 to less than 90% to an inadequate antibacterial action, and a microbe reduction of greater than 90% to a good antibacterial action.
# [3] = coating concentration 0.001 %, wash pretreatment (A) unwashed
# [4] = coating concentration 0.001 %, wash pretreatment (B) washed twice at 30° C. only with water
# [5] = coating concentration 0.01 %, wash pretreatment (A) unwashed
# [6] = coating concentration 0.01 %, wash pretreatment (B) washed twice at 30° C. only with water
# [7] = coating concentration 0.01 %, wash pretreatment (C) washed once at 30° C. EN ISO 6330 method 8A with ECE B detergent
# [8] = coating concentration 0.1 %, wash pretreatment (A) unwashed
# [9] = coating concentration 0.1 %, wash pretreatment (B) washed twice at 30° C. only with water
# [10] = coating concentration 0.1 %, wash pretreatment (C) washed once at 30° C. EN ISO 6330 method 8A with ECE B detergent
# [11] = coating concentration 0.001 % based on fabric
# [12] = coating concentration 0.01 % based on fabric
# [13] = coating concentration 0.1 % based on fabric
compound,measurement,setting,value
"CCO[Si](CCCNC(=O)[C@H](O)[C@@H](O)[C@H](O)[C@H](O)CO)(OCC)OCC [S4, N-(triethoxysilylpropyl)gluconamide]",Reduction in adhered bacteria [%] P. aeruginosa,P. aeruginosa DSMZ 1117,57%
same,adhesion pattern on microscopic inspection,Staphylococcus aureus [1]; S. aureus on coated glass surface,only a few grapelike assemblies of S. aureus
same,Reduction in cell count relative to control [%] S. aureus,Staphylococcus aureus [1],16% and 17%
same,Cell count [1/cm^2] S. aureus,Staphylococcus aureus [1],383 000 1/cm^2
same,Reduction in adhered bacteria [%] S. aureus,S. aureus DSMZ 20231,58%
same,Reduction in cell count relative to control [%] E. coli,Escherichia coli,51%
same,Cell count [1/cm^2] E. coli,Escherichia coli,389 000 1/cm^2
bis[3-(triethoxysilylpropoxy)-2-hydroxypropoxy)]polyethylene oxide (5-10 EO units) [S2],Reduction in adhered bacteria [%],P. aeruginosa DSMZ 1117; [3],62%
same,Reduction in adhered bacteria [%],P. aeruginosa DSMZ 1117; [4],87%
same,Reduction in adhered bacteria [%],"P. aeruginosa DSMZ 1117; coating concentration 0.001 %, wash pretreatment (C) washed once at 30° C. EN ISO 6330 method 8A with ECE B detergent",55%
same,Reduction in adhered bacteria [%],P. aeruginosa DSMZ 1117; [5],79%
same,Reduction in adhered bacteria [%],P. aeruginosa DSMZ 1117; [6],36%
same,Reduction in adhered bacteria [%],P. aeruginosa DSMZ 1117; [7],75%
same,Reduction in adhered bacteria [%],P. aeruginosa DSMZ 1117; [8],68%
same,Reduction in adhered bacteria [%],P. aeruginosa DSMZ 1117; [9],45%
same,Reduction in adhered bacteria [%],P. aeruginosa DSMZ 1117; [10],75%
same,Reduction in adhered bacteria [%] P. aeruginosa,P. aeruginosa DSMZ 1117,64%
same,Reduction in adhered bacteria [%],S. aureus DSMZ 20231; [3],30%
same,Reduction in adhered bacteria [%],S. aureus DSMZ 20231; [4],52%
same,Reduction in adhered bacteria [%],S. aureus DSMZ 20231; [5],71%
same,Reduction in adhered bacteria [%],S. aureus DSMZ 20231; [6],31%
same,Reduction in adhered bacteria [%],S. aureus DSMZ 20231; [7],66%
same,Reduction in adhered bacteria [%],S. aureus DSMZ 20231; [8],55%
same,Reduction in adhered bacteria [%],S. aureus DSMZ 20231; [9],48%
same,Reduction in adhered bacteria [%],S. aureus DSMZ 20231; [10],49%
same,Reduction in adhered bacteria [%] S. aureus,S. aureus DSMZ 20231,85%
same,Antimicrobial activity[log] Unwashed,Staphylococcus aureus [2]; [11],0.2 log
same,"Antimicrobial activity[log] Washed once at 30° C., without detergent",Staphylococcus aureus [2]; [11],−0.1 log
same,Antimicrobial activity[log] Washed twice with water,Staphylococcus aureus [2]; [11],0.1 log
same,Antimicrobial activity[log] Unwashed,Staphylococcus aureus [2]; [12],−0.4 log
same,"Antimicrobial activity[log] Washed once at 30° C., without detergent",Staphylococcus aureus [2]; [12],−0.6 log
same,Antimicrobial activity[log] Washed twice with water,Staphylococcus aureus [2]; [12],0.1 log
same,Antimicrobial activity[log] Unwashed,Staphylococcus aureus [2]; [13],−0.2 log
same,"Antimicrobial activity[log] Washed once at 30° C., without detergent",Staphylococcus aureus [2]; [13],−0.4 log
same,Antimicrobial activity[log] Washed twice with water,Staphylococcus aureus [2]; [13],0.00 log
methoxy(polyethyleneoxy)propyltrimethoxysilane (9-12 EO units) [S1],Reduction in adhered bacteria [%] P. aeruginosa,P. aeruginosa DSMZ 1117,41%
same,Reduction in cell count relative to control [%] S. aureus,Staphylococcus aureus [1],76%
same,"adhesion of S. aureus to coated glass, assessment in words",Staphylococcus aureus [1]; coated glass slides,Very good results
same,Cell count [1/cm^2] S. aureus,Staphylococcus aureus [1],110 000 1/cm^2
same,Reduction in adhered bacteria [%] S. aureus,S. aureus DSMZ 20231,34%
same,"adhesion of bacteria to coated glass, assessment in words","Escherichia coli; both series of tests (S. aureus and E. coli), compared with glass control",very good results
same,Reduction in cell count relative to control [%] E. coli,Escherichia coli,63%
same,Cell count [1/cm^2] E. coli,Escherichia coli,296 000 1/cm^2

# From patent US10132029B2, “Method for reducing adhesion of microorganisms to fabrics” (priority 2013, dated 2018)
